From patent publication US20050009776A1, “Method of treating atrial fibrillation or atrial flutter” (Aderis Pharmaceuticals, Inc., priority 2003, published 2005)
Marks after values point to notes of the source that are not given here.

What was measured:
[1] = tested on: adult patients with rapid atrial fibrillation (AF); assay: Example 1: ventricular rate control in atrial fibrillation, 15-minute i.v. loading dose plus maintenance dose; type: in vivo, human
Method: A randomized, parallel-group, open label, dose-ranging study of DTI-0009 as a 15-minute intravenous loading dose (LD) followed by a maintenance dose (MD) infusion for up to 20 hours in adult patients with rapid atrial fibrillation (AF) (>120 bpm) was conducted. 78 patients were randomized to receive one of three LD regimens. If the ventricular rate (VR) was between 70 and 90 bpm 5 minutes after the end of the LD, then patients were randomized to one of the following three MDs of DTI-0009: 1.75 μg/kg/hr, 2.25 μg/kg/hr, or 2.75 μg/kg/hr. The MD was adjusted to keep the VR within the 70-90 bpm range.
63 of 69 patients completed the LD, 20 patients received a MD, and 18 patients completed at least 3 hours of MD. The VR remained below 100 bpm across all the dosing regimens during the 3-hour MD.

[2] = tested on: A1 receptor / A2A receptor; assay: Affinity for adenosine A1 receptor relative to A2A receptor; type: binding
Description: Therefore, DTI-0009 may be capable of terminating episodes of supraventricular arrythymias at doses that have little effect on normal heart rate or blood pressure.

[3] = Example 2: safety (adverse events, blood pressure, clinical laboratory values); type: in vivo, human; conditions: for Diastolic BP Change from Baseline Post-treatment / Diastolic BP Change from Baseline Treatment / Systolic BP Change from Baseline Post-treatment / Systolic BP Change from Baseline Treatment: mean ± SD
Method: Each patient received 1 of 6 doses of DTI-0009 (0.25, 1.0, 2.5, 4.0, 10.0, or 25.0 μg/kg) diluted in normal saline or normal saline only (control). Study drug was administered as a 30-minute i.v. infusion at a rate of 1 mL/minute. Patients were enrolled in sequential dose groups, beginning with the lowest active dose group and continuing in increasing dose order; the final group received normal saline. The decision to proceed to the next highest dose group was based on the safety response in the previous dose group.
Electrophysiologic (EP), electrocardiogram (ECG), blood pressure measurements, and blood collection for clinical laboratory measurements were performed at baseline (−10 to 0 minutes), during treatment (between 20 and 30 minutes), and at 10 minutes post-treatment.
ECG measurements included PR interval, QRS complex duration, and QT interval. Efficacy was based on changes in EP and ECG parameters from baseline to the treatment period and to post treatment. Safety was based on the incidence of adverse events, blood pressure measurements, and clinical laboratory values.
The incidence of adverse events, blood pressure measurements, and clinical laboratory results were summarized by dose group. Adverse events were coded using the medical dictionary for regulatory activities (MedDRA version 3.0). Safety analyses included all patients who received any duration of study drug infusion.

SMILES: CCNC(=O)[C@H]1O[C@@H](n2cnc3c(NC4CCCC4)ncnc32)[C@H](O)[C@@H]1O [DTI-0009, N^6-cyclopentyl-5′-(N-ethyl)carboxamidoadenosine]
- ventricular rate (VR) ([1]; LD 2.5 μg/kg, 5 min, Baseline 143): 129^a bpm
- ventricular rate (VR) ([1]; LD 2.5 μg/kg, 10 min, Baseline 143): 117^a bpm
- ventricular rate (VR) ([1]; LD 2.5 μg/kg, 15 min, Baseline 143): 113^b bpm
- ventricular rate (VR) ([1]; LD 2.5 μg/kg, 20 min, Baseline 143): 115^b bpm
- ventricular rate (VR) ([1]; LD 5.0 μg/kg, 5 min, Baseline 138): 115^b bpm
- ventricular rate (VR) ([1]; LD 5.0 μg/kg, 10 min, Baseline 138): 104^b bpm
- ventricular rate (VR) ([1]; LD 5.0 μg/kg, 15 min, Baseline 138): 108^b bpm
- ventricular rate (VR) ([1]; LD 5.0 μg/kg, 20 min, Baseline 138): 111^b bpm
- ventricular rate (VR) ([1]; LD 7.5 μg/kg, 5 min, Baseline 143): 110^b,c bpm
- ventricular rate (VR) ([1]; LD 7.5 μg/kg, 10 min, Baseline 143): 99^b,c bpm
- ventricular rate (VR) ([1]; LD 7.5 μg/kg, 15 min, Baseline 143): 105^b bpm
- ventricular rate (VR) ([1]; LD 7.5 μg/kg, 20 min, Baseline 143): 106^b bpm
- VR during maintenance dose ([1]; all dosing regimens, 3-hour MD): below 100 bpm
- systolic and diastolic blood pressures ([1]; during the LD): did not change significantly
- affinity for the A1 receptor higher than for the A2A receptor [2]: 340 fold
- Adverse Events Related to Study Drug: Cardiac Disorders (all) ([3]; 0.25 μg/kg (n = 10)): 0
- Adverse Events Related to Study Drug: General Disorders (all) ([3]; 0.25 μg/kg (n = 10)): 0
- Incidence of Adverse Events Related to Study Drug ([3]; 0.25 μg/kg (n = 10)): 0
- Incidence of Adverse Events: Any Adverse Event ([3]; 0.25 μg/kg (n = 10)): 3 (30%)
- Incidence of Adverse Events: Atrial fibrillation ([3]; 0.25 μg/kg (n = 10)): 1 (10%)
- Incidence of Adverse Events: Atrial flutter ([3]; 0.25 μg/kg (n = 10)): 1 (10%)
- Incidence of Adverse Events: Atrial tachycardia ([3]; 0.25 μg/kg (n = 10)): 0
- Incidence of Adverse Events: Bradycardia ([3]; 0.25 μg/kg (n = 10)): 0
- Incidence of Adverse Events: Cardiac Disorders ([3]; 0.25 μg/kg (n = 10)): 2 (20%)
- Incidence of Adverse Events: Chest pain/tightness ([3]; 0.25 μg/kg (n = 10)): 0
- Incidence of Adverse Events: Conduction disorders ([3]; 0.25 μg/kg (n = 10)): 0
- Incidence of Adverse Events: General Disorders ([3]; 0.25 μg/kg (n = 10)): 0
- Incidence of Adverse Events: Groin pain/swelling ([3]; 0.25 μg/kg (n = 10)): 0
- Diastolic BP Change from Baseline Post-treatment ([3]; 0.25 μg/kg): 5.2 ± 9.7 mmHg
- Diastolic BP Change from Baseline Treatment ([3]; 0.25 μg/kg): 2.5 ± 8.1 mmHg
- Systolic BP Change from Baseline Post-treatment ([3]; 0.25 μg/kg): 5.8 ± 9.5 mmHg
- Systolic BP Change from Baseline Treatment ([3]; 0.25 μg/kg): 8.8 ± 8.2 mmHg
- Adverse Events Related to Study Drug: Cardiac Disorders (all) ([3]; 1.0 μg/kg (n = 10)): 1 (10%)
- Adverse Events Related to Study Drug: General Disorders (all) ([3]; 1.0 μg/kg (n = 10)): 0
- Incidence of Adverse Events Related to Study Drug ([3]; 1.0 μg/kg (n = 10)): 1 (10%)
- Incidence of Adverse Events: Any Adverse Event ([3]; 1.0 μg/kg (n = 10)): 6 (60%)
- Incidence of Adverse Events: Atrial fibrillation ([3]; 1.0 μg/kg (n = 10)): 0
- Incidence of Adverse Events: Atrial flutter ([3]; 1.0 μg/kg (n = 10)): 1 (10%)
- Incidence of Adverse Events: Atrial tachycardia ([3]; 1.0 μg/kg (n = 10)): 0
- Incidence of Adverse Events: Bradycardia ([3]; 1.0 μg/kg (n = 10)): 0
- Incidence of Adverse Events: Cardiac Disorders ([3]; 1.0 μg/kg (n = 10)): 1 (10%)
- Incidence of Adverse Events: Chest pain/tightness ([3]; 1.0 μg/kg (n = 10)): 0
- Incidence of Adverse Events: Conduction disorders ([3]; 1.0 μg/kg (n = 10)): 0
- Incidence of Adverse Events: General Disorders ([3]; 1.0 μg/kg (n = 10)): 1 (10%)
- Incidence of Adverse Events: Groin pain/swelling ([3]; 1.0 μg/kg (n = 10)): 1 (10%)
- Diastolic BP Change from Baseline Post-treatment ([3]; 1.0 μg/kg): 1.0 ± 5.6 mmHg
- Diastolic BP Change from Baseline Treatment ([3]; 1.0 μg/kg): 3.3 ± 9.3 mmHg
- Systolic BP Change from Baseline Post-treatment ([3]; 1.0 μg/kg): 1.4 ± 21.5 mmHg
- Systolic BP Change from Baseline Treatment ([3]; 1.0 μg/kg): −0.1 ± 18.0 mmHg
- Adverse Events Related to Study Drug: Cardiac Disorders (all) ([3]; 2.5 μg/kg (n = 8)): 0
- Adverse Events Related to Study Drug: General Disorders (all) ([3]; 2.5 μg/kg (n = 8)): 0
- Incidence of Adverse Events Related to Study Drug ([3]; 2.5 μg/kg (n = 8)): 0
- Incidence of Adverse Events: Any Adverse Event ([3]; 2.5 μg/kg (n = 8)): 3 (38%)
- Incidence of Adverse Events: Atrial fibrillation ([3]; 2.5 μg/kg (n = 8)): 1 (13%)
- Incidence of Adverse Events: Atrial flutter ([3]; 2.5 μg/kg (n = 8)): 0
- Incidence of Adverse Events: Atrial tachycardia ([3]; 2.5 μg/kg (n = 8)): 0
- Incidence of Adverse Events: Bradycardia ([3]; 2.5 μg/kg (n = 8)): 0
- Incidence of Adverse Events: Cardiac Disorders ([3]; 2.5 μg/kg (n = 8)): 1 (13%)
- Incidence of Adverse Events: Chest pain/tightness ([3]; 2.5 μg/kg (n = 8)): 1 (13%)
- Incidence of Adverse Events: Conduction disorders ([3]; 2.5 μg/kg (n = 8)): 0
